# *1 amine or outer side, *2 acyl side, *3 side chain or, on linkers, in order; H or OH if unused. Where a SMILES comes first, the peptide text is derived from it. Bridges are numbered along the chain shown (N, C = ends). [ ]: non-standard residue; d: D form. TATA = O=C(CC[*:1])N1CN(C(=O)CC[*:2])CN(C(=O)CC[*:3])C1; Phe(4-Me) = Cc1ccc(C[C@H](N)C(=O)O)cc1; 2Nal = N[C@@H](Cc1ccc2ccccc2c1)C(=O)O; hPhe = N[C@@H](CCc1ccccc1)C(=O)O; NMeA = CN[C@@H](C)C(=O)O
# Tests used:
# [1] = target: TREM2 extracellular domain (ECD) (residues 19-131, C-terminally biotinylated, deglycosylated or glycosylated) (Homo sapiens, UniProt Q9NZC2); experiment: biochemical; conditions: Human BLI (Kd; nM) (deglycosylated), Table 4A; deglycosylated human TREM2 ECD; steady-state KD, 25° C.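 Also: Bio-layer interferometry in 50 mM HEPES pH 7.5 with 150 mM NaCl and 0.1% Tween, double-referenced with blank wells and unrelated-protein sensors, equilibrium response fitted versus concentration.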
# Procedure: Bio-layer interferometry was performed on an Octet RED384® system (Sartorius) at 25° C. in a buffer containing 50 mM HEPES (pH 7.5), 150 mM NaCl and 0.1% Tween. TREM2 extracellular domain (ECD) (residues 19-131, C-terminally biotinylated, deglycosylated or glycosylated) was loaded onto Superstreptavidin biosensors (SSA, 18-5070, Sartorius) at 0.0125 mg/ml for 300 s. Bicycle peptides (10 mM in DMSO) were dispensed into 384-Well Tilted-Bottom Plates (18-5076, Sartorius) using an Echo liquid handler giving a final DMSO concentration of 0.125% in all wells including control wells. Association of defined concentrations of bicyclic peptide (0-12.5 μM, 1:2 dilutions for 7 points) was recorded over 120 s followed by dissociation in buffer over 120 s. Reference wells containing no bicycle peptides and reference sensors loaded with an unrelated protein (His-tagged MLLT3a) were subjected to the same assay protocol and double reference subtraction was used for processing to account for non-specific binding. Traces were analysed using Octet Software (Version 11.0). Association and dissociation curves were globally fit and the response at equilibrium (Req) plotted against concentration to obtain steady-state KD values.
# TREM2 receptor = target: T1, TREM2 receptor (Homo sapiens, UniProt Q9NZC2); experiment: pSYK Homogenous Time Resolved Fluorescence (HTRF) assay in iPSC macrophages; type: cell-based; conditions: human iPSC macrophages, 5 mins stimulation, phospho (Tyr 525/526) SYK; NB = no binding; read-out: pSYK
# T1 construct: Both parental (TREM2 expressing) and isogenic TREM2 KO iPSC macrophages were plated; endogenous in cells; host or cells: human iPSC-derived macrophages (parental, TREM2 expressing)
# T1 sequence (Q9NZC2 19-230): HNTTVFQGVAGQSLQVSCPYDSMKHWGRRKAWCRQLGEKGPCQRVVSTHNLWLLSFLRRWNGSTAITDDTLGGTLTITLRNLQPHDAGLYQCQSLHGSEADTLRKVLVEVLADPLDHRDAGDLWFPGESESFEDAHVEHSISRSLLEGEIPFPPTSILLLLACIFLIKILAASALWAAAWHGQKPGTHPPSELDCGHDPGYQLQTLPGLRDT
# Procedure: Quantitative assessment of total and phospho (Tyr 525/526) SYK was performed on iPSC macrophages using CisBio total and phospho-SYK HTRF kits (catalogue numbers 64SYKTPGG and 64SYKY525-PEG respectively). Human iPSC macrophage precursors derived from embryoid bodies were plated in 96 well plates (Perkin Elmer Cell Carrier ultra, black walled plates, #6055800) at a density of 40 k cells per well in 100 μl macrophage media (XVIVO15 (Lonza, #BE04-418F), 1% Penicillin-Streptomycin (Gibco, #15140-122), 1% GlutaMAX™ Supplement (Gibco, #35050-038), 0.1% M-CSF (Invitrogen, #PHC9501)). Cells were grown for 7 days to induce full differentiation to iPSC macrophages. Both parental (TREM2 expressing) and isogenic TREM2 KO iPSC macrophages were plated to test for specificity of peptide binding. Following differentiation, cells were stimulated for 5 mins with either the control TREM2 activating antibody (R&D systems, #AF1828), a human IgG control (R&D systems, #AB-108-C), or a 10 point CRC of bicyclic peptide (serial 2 fold dilutions from a starting concentration of 100 μM). Following stimulation the media was removed, and cells were lysed in 50 μl lysis buffer (supplied with the kit) per well. Cells were incubated in LB3 for 30 mins with shaking at room temperature. Following lysis, 16 μl of sample was removed and added to a white 384 well plate (ProxiPlate-384 Plus (Perkin Elmer, #6008280)) and 4 μl of pre-mixed antibody solution was added to each well of the plate. The plate was incubated overnight at room temperature, and the following day, […] was measured at 665 nm and 620 nm using a Pherastar FSX. The same cell lysate was used to assess total and phosphorylated SYK, to enable the generation of a ratio of phosphorylated SYK in each sample.
SMILES,Kd [1],EC50 (TREM2 receptor)
"CC(C)C[C@@H]1NC(=O)[C@H](Cc2ccc(O)cc2)NC(=O)[C@H](Cc2ccccc2)NC(=O)[C@@H]2CCCN2C(=O)[C@H](Cc2c[nH]c3ccccc23)NC(=O)[C@H](Cc2ccccc2)NC(=O)[C@@H]2CSCCC(=O)N3CN(CN(C3)C(=O)CCSC[C@@H](C(=O)N[C@@H](C)C(N)=O)NC1=O)C(=O)CCSC[C@H](NC(=O)[C@H](C)N)C(=O)N[C@@H]([C@@H](C)O)C(=O)N[C@@H](CC(N)=O)C(=O)N[C@@H](Cc1ccc(O)cc1)C(=O)N2 [BCY19782, A-(SEQ ID NO: 21)-A] (H-ACTNYCFWPFYLCA-NH2; linker 2-6-13 via TATA)",1400 nM,3.8 µM
"CC(=O)N[C@H]1CSCCC(=O)N2CN3CN(C2)C(=O)CCSC[C@H](NC(=O)[C@H](Cc2ccc(O)cc2)NC(=O)[C@H](CCC(=O)O)NC(=O)[C@H](CO)NC1=O)C(=O)N[C@@H](Cc1ccccc1)C(=O)N[C@@H](Cc1ccc2ccccc2c1)C(=O)N1CCC[C@H]1C(=O)N[C@@H](Cc1ccccc1)C(=O)N[C@@H](Cc1ccc(O)cc1)C(=O)N[C@@H](C)C(=O)N[C@H](C(N)=O)CSCCC3=O [BCY19296, Ac-(SEQ ID NO: 33)] (Ac-CSEYCF[2Nal]PFYAC-NH2; linker 1-5-12 via TATA; C-terminus assumed)",2700 nM,< 3.4 µM
"CC(=O)N[C@H]1CSCCC(=O)N2CN3CN(C2)C(=O)CCSC[C@H](NC(=O)[C@H](Cc2ccc(O)cc2)NC(=O)[C@H](CCC(=O)O)NC(=O)[C@H](CO)NC1=O)C(=O)N[C@@H](Cc1ccccc1)C(=O)N[C@@H](Cc1c[nH]c2ccccc12)C(=O)N1CCC[C@H]1C(=O)N[C@@H](CCc1ccccc1)C(=O)N[C@@H](Cc1ccc(O)cc1)C(=O)N[C@@H](C)C(=O)N[C@H](C(N)=O)CSCCC3=O [BCY19301, Ac-(SEQ ID NO: 35)] (Ac-CSEYCFWP[hPhe]YAC-NH2; linker 1-5-12 via TATA)",,< 3.4 µM
"C[C@H](N)C(=O)N[C@H]1CSCCC(=O)N2CN3CN(C2)C(=O)CCSC[C@H](NC(=O)[C@H](Cc2ccc(O)cc2)NC(=O)[C@H](CCC(=O)O)NC(=O)[C@H](CO)NC1=O)C(=O)N[C@@H](Cc1ccccc1)C(=O)N[C@@H](Cc1c[nH]c2ccccc12)C(=O)N1CCC[C@H]1C(=O)N[C@@H](Cc1ccccc1)C(=O)N[C@@H](CCC(N)=O)C(=O)N[C@@H](Cc1ccc(O)cc1)C(=O)N[C@H](C(=O)N[C@@H](C)C(N)=O)CSCCC3=O [BCY19784, A-(SEQ ID NO: 23)-A] (H-ACSEYCFWPFQYCA-NH2; linker 2-6-13 via TATA)",,1.8 µM
"CC(=O)N[C@H]1CSCCC(=O)N2CN3CN(C2)C(=O)CCSC[C@H](NC(=O)[C@H](Cc2ccc(O)cc2)NC(=O)[C@H](CCC(=O)O)NC(=O)[C@H](CO)NC1=O)C(=O)N[C@@H](Cc1ccc(C)cc1)C(=O)N[C@@H](Cc1c[nH]c2ccccc12)C(=O)N1CCC[C@H]1C(=O)N[C@@H](Cc1ccccc1)C(=O)N[C@@H](Cc1ccc(O)cc1)C(=O)N[C@@H](C)C(=O)N[C@H](C(N)=O)CSCCC3=O [BCY19298, Ac-(SEQ ID NO: 30)] (Ac-CSEYC[Phe(4-Me)]WPFYAC-NH2; linker 1-5-12 via TATA; C-terminus assumed)",,< 3.4 µM
"CC(=O)N[C@H]1CSCCC(=O)N2CN3CN(C2)C(=O)CCSC[C@H](NC(=O)[C@H](Cc2ccc(O)cc2)NC(=O)[C@H](CCC(=O)O)NC(=O)[C@H](CO)NC1=O)C(=O)N[C@@H](Cc1ccccc1)C(=O)N[C@@H](Cc1c[nH]c2ccccc12)C(=O)N(C)[C@@H](C)C(=O)N[C@@H](Cc1ccccc1)C(=O)N[C@@H](Cc1ccc(O)cc1)C(=O)N[C@@H](C)C(=O)N[C@H](C(N)=O)CSCCC3=O [BCY19303, Ac-(SEQ ID NO: 34)] (Ac-CSEYCFW[NMeA]FYAC-NH2; linker 1-5-12 via TATA)",,< 3.4 µM

# — patent publication US11904020B2, “Bicyclic peptide ligands specific for TREM2” (Bicycle Tx Limited, priority 2021, dated 2024)
